ChEMBL document CHEMBL6134852, “Electrostatic Anchoring in RNA-Ligand Design─Dissecting the Effects of Positive Charges on Affinity, Selectivity, Binding Kinetics, and Thermodynamics” (J Med Chem, 2025)
pKd: −log10 of the molar value.

What was measured:
Precursor microRNA-372 = test: Binding affinity to pre-miRNA-372 beacon (unknown origin) assessed as dissociation constant measured after 4 hrs by fluorescence based analysis; assay type: nucleic-acid assay
PreQ1 riboswitch [1] = test: Binding affinity to Tte preQ1 riboswitch aptamer assessed as change in enthalpy by ITC analysis; assay type: nucleic-acid assay; settings: Caldanaerobacter subterraneus; subsp. tengcongensis
[2] = biological target: S-adenosylmethionine-VI riboswitch; test: Binding affinity to Bifidobacterium angulatum SAM-VI riboswitch assessed as dissociation constant by ITC analysis; assay type: nucleic-acid assay
PreQ1 riboswitch [3] = test: Binding affinity to Tte preQ1 riboswitch aptamer assessed as dissociation constant by MST analysis; assay type: nucleic-acid assay, Caldanaerobacter subterraneus, subsp. tengcongensis
PreQ1 riboswitch [4] = test: Binding affinity to SA sensor chip-immobilized Tte preQ1 riboswitch aptamer assessed as dissociation constant by SPR steady-state analysis; assay type: nucleic-acid assay, Caldanaerobacter subterraneus, subsp. tengcongensis
PreQ1 riboswitch [5] = test: Binding affinity to Tte preQ1 riboswitch aptamer assessed as binding constant (Kon) by ITC analysis; assay type: nucleic-acid assay; settings: Caldanaerobacter subterraneus; subsp. tengcongensis
PreQ1 riboswitch [6] = test: Binding affinity to Tte preQ1 riboswitch aptamer assessed as binding constant (Koff) by ITC analysis; assay type: nucleic-acid assay; settings: Caldanaerobacter subterraneus; subsp. tengcongensis
[7] = test system: S-adenosylmethionine-VI riboswitch; test: Binding affinity to Bifidobacterium angulatum SAM-VI riboswitch assessed as assessed as binding constant (Kon) by ITC analysis; assay type: nucleic-acid assay
PreQ1 riboswitch [8] = test: Binding affinity to Tte preQ1 riboswitch aptamer assessed as dissociation constant by ITC analysis; assay type: nucleic-acid assay, Caldanaerobacter subterraneus, subsp. tengcongensis
PreQ1 riboswitch [9] = test: Binding affinity to Tte preQ1 riboswitch aptamer assessed as change in entropy by ITC analysis; assay type: nucleic-acid assay; settings: Caldanaerobacter subterraneus; subsp. tengcongensis
PreQ1 riboswitch [10] = test: Binding affinity to SA sensor chip-immobilized Tte preQ1 riboswitch aptamer assessed as binding constant (Kon) by SPR analysis; assay type: nucleic-acid assay; settings: Caldanaerobacter subterraneus; subsp. tengcongensis
PreQ1 riboswitch [11] = test: Binding affinity to SA sensor chip-immobilized Tte preQ1 riboswitch aptamer assessed as binding constant (Koff) by SPR analysis; assay type: nucleic-acid assay; settings: Caldanaerobacter subterraneus; subsp. tengcongensis
PreQ1 riboswitch [12] = test: Binding affinity to SA sensor chip-immobilized Tte preQ1 riboswitch aptamer assessed as dissociation constant by SPR analysis; assay type: nucleic-acid assay, Caldanaerobacter subterraneus, subsp. tengcongensis
PreQ1 riboswitch [13] = test: Binding affinity to Tte preQ1 riboswitch assessed as change in Gibb's free energy by ITC analysis; assay type: nucleic-acid assay; settings: Caldanaerobacter subterraneus; subsp. tengcongensis
[14] = test system: S-adenosylmethionine-VI riboswitch; test: Binding affinity to SA sensor chip-immobilized Bifidobacterium angulatum SAM-VI riboswitch aptamer assessed as binding constant (Kon) by SPR analysis; assay type: nucleic-acid assay
[15] = test system: S-adenosylmethionine-VI riboswitch; test: Binding affinity to SA sensor chip-immobilized Bifidobacterium angulatum SAM-VI riboswitch aptamer assessed as binding constant (Koff) by SPR analysis; assay type: nucleic-acid assay
[16] = biological target: S-adenosylmethionine-VI riboswitch; test: Binding affinity to SA sensor chip-immobilized Bifidobacterium angulatum SAM-VI riboswitch aptamer assessed as dissociation constant by SPR analysis; assay type: nucleic-acid assay
[17] = biological target: S-adenosylmethionine-VI riboswitch; test: Binding affinity to SA sensor chip-immobilized Bifidobacterium angulatum SAM-VI riboswitch aptamer assessed as dissociation constant by SPR steady-state analysis; assay type: nucleic-acid assay
PreQ1 riboswitch [18] = test: Binding affinity to Alexa Fluor 647-labeled Tte preQ1 riboswitch assessed as dissociation constant by fluorescence based analysis; assay type: nucleic-acid assay, Caldanaerobacter subterraneus, subsp. tengcongensis
Ribozyme [19] = test: Binding affinity to Tetrahymena group I ribozyme (unknown origin) assessed as dissociation constant; assay type: nucleic-acid assay
Ribozyme [20] = test: Binding affinity to Tetrahymena group I ribozyme (unknown origin) assessed as binding constant (Kon); assay type: nucleic-acid assay
Ribozyme [21] = test: Binding affinity to Tetrahymena group I ribozyme (unknown origin) assessed as binding constant (Koff); assay type: nucleic-acid assay
TAR RNA = test: Binding affinity to Alexa Fluor 488-labeled HIV-1 TAR RNA assessed as dissociation constant by fluorescence based analysis; assay type: nucleic-acid assay, Human immunodeficiency virus 1

Structure (SMILES) | deltaH (PreQ1 riboswitch [1]) | pKd (PreQ1 riboswitch [3]) | pKd (PreQ1 riboswitch [4]) | K (PreQ1 riboswitch [5]) | K (PreQ1 riboswitch [6]) | pKd (PreQ1 riboswitch [8]) | -TdeltaS (PreQ1 riboswitch [9]) | K (PreQ1 riboswitch [10]) | koff (PreQ1 riboswitch [11]) | pKd (PreQ1 riboswitch [12]) | deltaG (PreQ1 riboswitch [13]) | also measured
NC[C@@H]1O[C@H](O[C@H]2[C@@H](O)[C@H](O[C@@H]3[C@@H](O)[C@H](N)C[C@H](N)[C@H]3O[C@H]3O[C@H](CN)[C@@H](O)[C@H](O)[C@H]3N)O[C@@H]2CO)[C@H](N)[C@@H](O)[C@@H]1O [FRAMYCETIN] | – | – | – | – | – | – | – | – | – | – | – | pKd (Precursor microRNA-372): 5.13
CC(=O)Nc1csc(-c2cccc(NC(=O)CCc3cn(C[C@H]4O[C@@H](O[C@@H]5[C@@H](O)[C@H](N)C[C@H](N)[C@H]5O[C@H]5O[C@H](CN)[C@@H](O)[C@H](O)[C@H]5N)[C@H](O)[C@@H]4O[C@H]4O[C@@H](CN)[C@@H](O)[C@H](O)[C@H]4N)nn3)c2)n1 | – | – | – | – | – | – | – | – | – | – | – | pKd (Precursor microRNA-372): 7.80
Nc1ncnc2c1ncn2[C@@H]1O[C@H](CSCC[C@H](N)C(=O)O)[C@@H](O)[C@H]1O [S-ADENOSYLHOMOCYSTEINE] | -8.27 kcal/mol | 4.46 | 3.92 | 3.57 10^3/M/s | 4.58 10^-2/s | 4.85 | 1.63 kcal/mol | 3.88 10^2/Ms | 0.054 s⁻¹ | 3.82 | -6.64 kcal/mol | pKd [2]: 4.96; K [7]: 5.5 10^3/M/s
NCCCNC[C@H]1O[C@@H](n2cnc3c(N)ncnc32)[C@H](O)[C@@H]1O | -20.9 kcal/mol | 5.01 | 4.80 | 1.36 10^4/M/s | 2.38 10^-2/s | 5.76 | 13 kcal/mol | 1.28 10^4/Ms | 0.0481 s⁻¹ | 5.38 | -7.89 kcal/mol | K [14]: 1.48 10^4/M/s; K [15]: 4.59 10^-2/s; pKd [16]: 5.51; pKd [17]: 5.22
C[S+](CC[C@H](N)C(=O)[O-])C[C@H]1O[C@@H](n2cnc3c(N)ncnc32)[C@H](O)[C@@H]1O (stereo partly specified) [ADEMETIONINE] | -14.5 kcal/mol | 6.14 | 5.34 | 2.13 10^4/M/s | 1.42 10^-2/s | 6.17 | 6.09 kcal/mol | 2.98 10^3/Ms | – | 5.43 | -8.44 kcal/mol | pKd [2]: 6.48; K [7]: 2.46 10^4/M/s
Nc1ncnc2c1ncn2[C@@H]1O[C@H](CNCC[C@H](N)C(=O)O)[C@@H](O)[C@H]1O | -22.8 kcal/mol | 4.48 | 4.68 | 1.54 10^4/M/s | 4.66 10^-2/s | 5.48 | 15.3 kcal/mol | 2.94 10^3/Ms | 0.0361 s⁻¹ | 4.91 | -7.48 kcal/mol | –
NCCOc1ccc2oc3ccccc3c2c1 | – | – | – | – | – | – | – | – | – | – | – | pKd (PreQ1 riboswitch [18]): 6.30
Nc1nc2c(ncn2[C@H]2C[C@H](N)[C@@H](CO)O2)c(=O)[nH]1 | – | – | – | – | – | – | – | – | – | – | – | pKd (Ribozyme [19]): 7.03; K (Ribozyme [20]): > 2.1 10^7/M/min; K (Ribozyme [21]): > 2 min⁻¹
CC(=O)Nc1nc(-c2cccc(NC(=O)[C@H]3C[C@H](OC(=O)[C@@H](N)CCCN)[C@@H](COC(=O)[C@@H](N)CCCCN)O3)c2)cs1 | – | – | – | – | – | – | – | – | – | – | – | pKd (TAR RNA): 5.10
Nc1nc2c(ncn2[C@@H]2O[C@H](CO)[C@@H](O)[C@H]2O)c(=O)[nH]1 [GUANOSINE] | – | – | – | – | – | – | – | – | – | – | – | pKd (Ribozyme [19]): 3.96; K (Ribozyme [20]): 4 10^5/M/min; K (Ribozyme [21]): 44 min⁻¹
